Results from US11447522B2, “Potent soft anti-inflammatory corticosteroid compounds and uses thereof” (Bodor Laboratories, Inc., priority 2017, dated 2022).
Where two headings read alike, the source gives them in different places.

Columns and labels:
[1] = Stability in the presence of human plasma (HPLC/MS/MS); type: in vitro ADME; conditions: 37° C.
Method: Etiprednol dicloacetate (BNP-166) was added to freshly prepared human plasma of healthy donors at a concentration of 5 ng/ml, and were incubated at 37° C. for different intervals. After incubation the amount of the original compound (ethyl-17α-dichloroacetoxy-11β-hydroxyandostra-1,4-diene-3-one-17β-carboxylate), and one of its main metabolite, M-OH (17α,11β-dihydroxyandostra-1,4-diene-3-one-17β-carboxylate) were determined using an HPLC/MS/MS method. In brief: Fluocinolone acetonide served as internal standard (20 ng/ml), samples were extracted with a liquid-liquid extraction on Extrelut® columns, and were separated on a Purospher STAR 30×2 mm (3 μm) reversed phase column at a flow rate of 0.3 ml/min, using a linear gradient with a mobile phase system containing acetonitrile, water and acetic acid. Determination were performed on a triple quadrupole mass spectrometer (Perkin-Elmer SCIEX API 2000) supplied with an electrospray interface operated in the positive ionization mode. The multiple ion monitoring, parent→daughter ion transitions of 485.2→265.2, 375.2→265.2 and 495.2→337.2 were used for the quantification of etiprednol dicloacetate, its M-OH metabolite and for the internal standard respectively. Results are expressed as peak areas normalized to the internal control. Stability of the selected ED analogs (10, 11, 13, 17, 21, 25) were determined as described above for ED (3).

[2] = system: TNF-α production of LPS-stimulated whole blood cells; experiment: Stability: inhibition of TNF-α production with or without preincubation of the compounds in human plasma/serum; type: cell-based; conditions: for potency and softness compared with the corresponding compounds 11 and 15: see Table 1
Method: (§1) The in vitro anti-inflammatory effect of ED and its analogs was assessed using LPS-induced TNF α-release under various conditions (diluted or undiluted whole human blood, preincubation with sera) to determine the intrinsic anti-inflammatory activity and systemic biological stability of the various compounds.
(§2) Commercially available human cytokine ELISA sets were used. TNF-α and GM-CSF sets were purchased from BD Pharmingen, San Diego, Calif., USA) and the IL-1β set was obtained from R&D Systems (Minneapolis, Minn., USA). ELISA was performed according to the manufacturer's protocol. Cell-free supernatants were tested in duplicate. Detection limits were 7.8 pg/ml for TNF-α, 4.7 pg/ml for GM-CSF, and 3.9 pg/ml for IL-1β. Results were expressed as the mean percentage of inhibition. IC50 values for test compounds were calculated by linear regression.
Mononuclear cells from peripheral blood of healthy donors were isolated on Ficoll-gradient. One million cells in 0.9 ml of RPMI 1640 medium were distributed into 24-well plates and serial concentrations of the test compounds, made in fresh human serum either instantly or 18 h previously, were added (0.05 ml) together with the lipopolysaccharide (0.05 ml; 1 μg/ml final concentration). Preincubation of the compounds with serum was carried out at 37° C. Processing of the cultures was done as described above.

[3] = system: TNF α-production of LPS-stimulated blood cells; experiment: TNF-α production of lipopolysaccharide-stimulated human blood; type: cell-based
Method: as §1, §2
Peripheral blood from healthy donors was collected aseptically into sterile heparinized (Vacutainer™) tubes. Whole blood samples from each individual were parallel used both undiluted and after 5-fold dilution with RPMI-1640 medium in every experiment. Blood samples were distributed into 24-well plates and incubated with serial concentrations of the test compounds and 1 μg/ml lipopolysaccharide for 24 h at 37° C. in a CO2 thermostat. Controls were treated with lipopolysaccharide and the vehicle (PBS or 0.01% dimethyl sulfoxide in PBS). After incubation, cell-free supernatants were separated by centrifugation (1000 g for 10 minutes) and stored at −20° C. until determination of the amount of TNF-α. Test compounds were examined in blood samples from five different individuals. Two parallel cultures per treatments were run.

[4] = system: mitogen-induced proliferation of PBMC; experiment: Proliferation of lectin-stimulated peripheral mononuclear cells; type: cell-based, human; conditions: read-out: Prolif.**: Inhibition of mitogen-induced proliferation of PBMC
Method: Mononuclear cells from heparinized peripheral blood of healthy donors were isolated on suitable gradient (Optiprep solution, 1.077 g/ml). Serial dilutions of the test compounds (ranging from 2×10^−6 to 2×10^−8 M) were made in 100 μl of medium per well of sterile round-bottomed 96-well microtiter plate. Control wells contained culture medium only. 100 μl of cell suspension (10^6 cells/ml), containing concanavalin A (2 μg/ml) was added to each well. […] All cultures were done in triplicate. Microtiter plates were incubated for 72 h at 37° C., in 5% CO2 containing humidified atmosphere. For the last 18 h of incubation, [^3H]thymidine was added to the cells cultures, at 0.1 μCi/well final concentration. At the end of the incubation, cells were harvested to glass microfiber filter (Whatman G/F) and associated radioactivity was determined by liquid scintillation.

[5] = system: ovalbumin sensitized and challenged Brown Norway rats; experiment: Airway changes of ovalbumin sensitized and challenged Brown Norway rats, intratracheal administration; type: in vivo; conditions: for AHR (airways hyperreactivity) ED50: relative response to maximal acetylcholine dose
[6] = non-preincubated in human plasma, read-out: Stability*** c: Inhibition of TNF-α production of LPS-stimulated whole blood cells
[7] = preincubated overnight in human plasma, read-out: Stability*** d: Inhibition of TNF-α production of LPS-stimulated whole blood cells
[8] = diluted blood 1:5, read-out: TNFα* a: Inhibition of TNF α-production of LPS-stimulated blood cells
[9] = undiluted blood, read-out: TNFα* b: Inhibition of TNF α-production of LPS-stimulated blood cells
[10] = intratracheal, 2 hours prior challenge
[11] = intratracheal, 2 hours prior challenge, minimal statistically significantly effective dose

SMILES | IC50 [2, 6] | IC50 [2, 7] | IC50 [3, 8] | IC50 [3, 9] | IC50 [4] | also measured
C[C@H]1C[C@H]2[C@@H]3CCC4=CC(=O)C=C[C@]4(C)[C@@]3(F)[C@@H](O)C[C@]2(C)[C@@]1(OC(=O)C(Cl)Cl)C(=O)OCCO [Compound 13, 2-Hydroxyethyl 17α-dichloroacetoxy-9α-fluoro-16β-methyl-11β-hydroxy-3-oxoandrosta-1,4-diene-17β-carboxylate] | 4.5 nM | 53.5 nM | 4.6 ± 6 nM | 5.8 ± 5 nM | – | stability in the presence of human plasma [1]: particularly stable; potency and softness compared with the corresponding compounds 11 and 15 [2]: more potent but softer
C[C@H]1C[C@H]2[C@@H]3C[C@H](F)C4=CC(=O)C=C[C@]4(C)[C@@]3(F)[C@@H](O)C[C@]2(C)[C@@]1(OC(=O)C(Cl)Cl)C(=O)OCCl [Compound 16, Chloromethyl 6α,9α-difluoro-17α-dichloroacetoxy-16β-methyl-11β-hydroxy-3-oxoandrosta-1,4-diene-17β-carboxylate] | – | – | 0.4 nM | 5.1 ± 1.7 nM | 26 ± 26 nM | –
COC(=O)C1(OC(=O)C(Cl)Cl)C(C)CC2C3CC(F)C4=CC(=O)C=CC4(C)C3(F)C(O)CC21C (stereo not drawn) [Compound 14, Methyl 6α,9α-difluoro-17α-dichloroacetoxy-16β-methyl-11β-hydroxy-3-oxoandrosta-1,4-diene-17β-carboxylate] | – | – | 0.8 ± 0.6 nM | 1.7 ± 0.9 nM | < 0.01 nM | –
C[C@H]1C[C@H]2[C@@H]3C[C@H](F)C4=CC(=O)C=C[C@]4(C)[C@@]3(F)[C@@H](O)C[C@]2(C)[C@@]1(OC(=O)C(Cl)Cl)C(=O)OCCO [Compound 17, 2-Hydroxyethyl 6α,9α-difluoro-17α-dichloroacetoxy-16β-methyl-11β-hydroxy-3-oxoandrosta-1,4-diene-17β-carboxylate] | 1.9 nM | 19.2 nM | < 1 nM | 3.7 ± 2.6 nM | 0.13 ± 0.02 nM | stability in the presence of human plasma [1]: particularly stable; potency and softness compared with the corresponding compounds 11 and 15 [2]: more potent but softer
CCC(=O)O[C@]1(C(=O)SCF)[C@H](C)C[C@H]2[C@@H]3C[C@H](F)C4=CC(=O)C=C[C@]4(C)[C@@]3(F)[C@@H](O)C[C@@]21C [FLU, fluticasone propionate] | – | – | – | – | – | Edema formation ED50 [5, 10]: 2.8 µg/kg; Eosinophilia BALF ED50 [5, 10]: >100 µg/kg; Eosinophilia Peribronchial ED50 [5, 10]: 10.5 µg/kg; Eosinophilia Perivascular ED50 [5, 10]: 45.0 µg/kg; Mucus production ED50 [5, 10]: <1.0 µg/kg; Mucus production, second line (dose type not given) [5, 10]: 1.0 µg/kg; BALF protein ED50 ([5]; intratracheal, 2 hours prior challenge, broncho-alveolar lavage fluid): 11.2 µg/kg; AHR (airways hyperreactivity) MSED [5, 11]: 0.1 µg/kg; BALF protein MSED [5, 11]: 10.0 µg/kg; Edema formation MSED [5, 11]: 1.0 µg/kg; Eosinophilia BALF MSED [5, 11]: 10.0 µg/kg; Eosinophilia Peribronchial MSED [5, 11]: 1.0 µg/kg; Eosinophilia Perivascular MSED [5, 11]: 10.0 µg/kg; AHR (airways hyperreactivity) ED50 [5, 10]: 0.14 µg/kg
C[C@@H]1C[C@H]2[C@@H]3C[C@H](F)C4=CC(=O)C=C[C@]4(C)[C@@]3(F)[C@@H](O)C[C@]2(C)[C@@]1(OC(=O)C(Cl)Cl)C(=O)OCCl [Compound 22, Chloromethyl 17α-dichloroacetoxy-6α,9α-difluoro-11β-hydroxy-16α-methyl-3-oxoandrosta-1,4-diene-17β-carboxylate] | – | – | 4 nM | 4 nM | 0.02 nM | –
CCOC(=O)[C@@]1(OC(=O)C(Cl)Cl)[C@@H](C)C[C@H]2[C@@H]3C[C@H](F)C4=CC(=O)C=C[C@]4(C)[C@@]3(F)[C@@H](O)C[C@@]21C [Compound 15, Ethyl 6α,9α-difluoro-17α-dichloroacetoxy-16β-methyl-11β-hydroxy-3-oxoandrosta-1,4-diene-17β-carboxylate] | – | – | 2 nM | 14 nM | < 0.01 nM | –
CCOC(=O)[C@@]1(OC(=O)C(Cl)Cl)[C@@H](C)C[C@H]2[C@@H]3CCC4=CC(=O)C=C[C@]4(C)[C@@]3(F)[C@@H](O)C[C@@]21C [Compound 11, Ethyl 17α-dichloroacetoxy-9α-fluoro-16β-methyl-11β-hydroxy-3-oxoandrosta-1,4-diene-17β-carboxylate] | 16 nM | 18 nM | 1.7 ± 2 nM | 7.1 ± 4 nM | 0.012 nM | overall in vivo activity compared with the parent steroid ([5]; Table 2 parameters): does not represent significant improvement over ED, except in mucus production; Edema formation ED50 [5, 10]: 93 µg/kg; Eosinophilia BALF ED50 [5, 10]: >100 µg/kg; Eosinophilia Peribronchial ED50 [5, 10]: 10.3 µg/kg; Mucus production ED50 [5, 10]: <1 µg/kg; Mucus production, second line (dose type not given) [5, 10]: <1 µg/kg; AHR (airways hyperreactivity) MSED [5, 11]: 20.0 µg/kg; Edema formation MSED [5, 11]: 0.5 µg/kg; Eosinophilia Peribronchial MSED [5, 11]: 12.0 µg/kg; AHR (airways hyperreactivity) ED50 [5, 10]: 19.4 µg/kg
C[C@@H]1C[C@H]2[C@@H]3C[C@H](F)C4=CC(=O)C=C[C@]4(C)[C@@]3(F)[C@@H](O)C[C@]2(C)[C@@]1(OC(=O)C(Cl)Cl)C(=O)OCF [Compound 21, Fluoromethyl 17α-dichloroacetoxy-6α,9α-difluoro-11β-hydroxy-16α-methyl-3-oxoandrosta-1,4-diene-17β-carboxylate] | 1.4 nM | 25 nM | 1.4 nM | 4.5 nM | 9 nM | stability in the presence of human plasma [1]: particularly stable
C[C@H]1C[C@H]2[C@@H]3CCC4=CC(=O)C=C[C@]4(C)[C@@]3(F)[C@@H](O)C[C@]2(C)[C@@]1(OC(=O)C(Cl)Cl)C(=O)OCCl [Compound 12, Chloromethyl 17α-dichloroacetoxy-9α-fluoro-16β-methyl-11β-hydroxy-3-oxoandrosta-1,4-diene-17β-carboxylate] | – | – | 20 ± 8 nM | 35 ± 12 nM | 0.05 ± 0.12 nM | –
COC(=O)[C@@]1(OC(=O)C(Cl)Cl)[C@@H](C)C[C@H]2[C@@H]3CCC4=CC(=O)C=C[C@]4(C)[C@@]3(F)[C@@H](O)C[C@@]21C [Compound 10, Methyl 17α-dichloroacetoxy-9α-fluoro-16β-methyl-11β-hydroxy-3-oxoandrosta-1,4-diene-17β-carboxylate] | 1.7 nM | 10.2 nM | 4 ± 3 nM | 20 ± 10 nM | < 0.01 nM | –
CC1CC2C3CC(F)C4=CC(=O)C=CC4(C)C3(F)C(O)CC2(C)C1(OC(=O)C(Cl)Cl)C(=O)SCCl (stereo not drawn) [Compound 26, S-Chloromethyl 17α-dichloroacetoxy-6α,9α-difluoro-11β-hydroxy-16α-methyl-3-oxoandrosta-1,4-diene-17β-carbothioate] | – | – | 6 nM | 12 nM | 3 nM | –
